# Data: US20230372361A1, “USE OF OXYGENATED CHOLESTEROL SULFATES FOR TREATING INFLAMMATORY CONDITIONS” (Durect Corporation, priority 2020, published 2023)
# What was measured:
# [1] = Tissue distribution by quantitative whole body autoradiography, intravenous, pigmented animals; assay type: in vivo, male Long Evans rats; details: iv 10 mg/kg
# Procedure: Nine male Sprague Dawley rats (Group 1) were designated for the pharmacokinetic phase, 3 male Sprague Dawley rats (Group 2) for the excretion mass balance phase, and 7 male Sprague Dawley rats (Group 3) and 9 male Long Evans rats (Group 4) for the tissue distribution phase. All animals received a single intravenous dose of [^14C]-25HC3S at 10 mg/kg and a target radioactivity of 225 μCi/kg. Blood samples were collected from all Group 1 animals at approximately 0.083, 0.25, 0.5, 1, 2, 4, 8, 12, 24, 48, and 72 hours post-dose. Urine and feces were collected from all Group 2 animals periodically through 168 hours post-dose. […] Following blood collection, animals were euthanized by CO2 inhalation and carcasses frozen in a dry ice/hexane bath for processing by quantitative whole body autoradiography. Whole blood, plasma, urine, feces, cage rinse, and cage wash were analyzed for total radioactivity by liquid scintillation counting.
# Huh-7 cells [2] = experiment: Global methylation, LINE-1 assay (pyrosequencing); assay type: cell-based, human; details: HG media, 25HC3S for 4 hours
# Procedure: Each sample, 2 was sent to […], Inc. (Hopkinton, MA) for analysis of global methylation bisulfite sequencing. The same samples, 6 μg, were sent to Novogene Co., Ltd (Tianjin, China) for analysis of whole genome bisulfite sequencing (WGBS). Total RNA was isolated using the Promega SV total RNA isolation system (Madison, WI) with DNase treatment. […] Real-time RT-PCR was performed using SYBR Green as the indicator on ABI 7500 Fast Real-Time PCR System (Applied Biosystems, Foster City, CA). Amplifications of β-actin or GAPDH were used as internal controls. Relative messenger RNA (mRNA) expression was quantified with the comparative cycle threshold (Ct) method using the primer set shown in Table 1.1 and was expressed as 2^-ΔΔct. […] PCR reaction and product purification were performed as per the manufacturer's protocol (GE Healthcare Life Sciences). The PCR products, 10 μl, were sequenced by Pyrosequencing on the PSQ96 HS System following the manufacturer's instructions (Pyrosequencing, Qiagen). The methylation status of each CpG site was determined individually as an artificial C/T SNP using QCpG software (Pyrosequencing, Qiagen). The methylation level at each CpG site was calculated as the percentage of the methylated alleles divided by the sum of all methylated and unmethylated alleles. The mean methylation level was calculated using methylation levels of all measured CpG sites within the targeted region of each gene. Each experiment included non-CpG cytosines as internal controls to detect incomplete bisulfite conversion of the input DNA. In addition, a series of unmethylated and methylated DNA were included as controls in each PCR assay. Furthermore, PCR bias testing was performed by mixing unmethylated control DNA with in vitro methylated DNA at different ratios (0%, 5%, 10%, 25%, 50%, 75%, and 100%), followed by bisulfite modification, PCR, and Pyro-sequencing analysis.
# [3] = design: species or system rats; details: Sprague Dawley, rat, in vivo, po, 75 mg/kg
# Huh-7 cells [4] = experiment: Real-time RT-PCR of key gene expression; assay type: cell-based, human; details: 6.25-50 μM, 1-8 hours
# Procedure: FIGS. 3A-3D. Expression of key genes related to signaling pathways. […] Key Genes and their targeting genes expression were determined by RT-PCR analysis. […] Each sample, 2 was sent to […], Inc. (Hopkinton, MA) for analysis of global methylation bisulfite sequencing. The same samples, 6 μg, were sent to Novogene Co., Ltd (Tianjin, China) for analysis of whole genome bisulfite sequencing (WGBS). Total RNA was isolated using the Promega SV total RNA isolation system (Madison, WI) with DNase treatment. […] Real-time RT-PCR was performed using SYBR Green as the indicator on ABI 7500 Fast Real-Time PCR System (Applied Biosystems, Foster City, CA). Amplifications of β-actin or GAPDH were used as internal controls. Relative messenger RNA (mRNA) expression was quantified with the comparative cycle threshold (Ct) method using the primer set shown in Table 1.1 and was expressed as 2^-ΔΔct.
# [5] = rat, in vivo, po, 75 mg/kg
# Procedure: Pancreas and liver concentrations ranged from 23,500 ng equiv./g to 28,100 ng equiv./g. Uveal tract and brain concentrations were lowest relative to the other tissues and were approximately 1000 ng equiv./g. Skin, thymus, prostate, and pituitary tissue concentrations were <3000 ng equiv./g. Remaining tissues had concentrations between 3600 ng-equiv./g and 10,700 ng equiv./g. […] As calculated using AUClast, the tissue:plasma ratios were highest for the small intestine (wall, 15.4) followed by the liver and adrenal gland at 6.96 and 6.64, respectively. High liver and small intestine concentrations are consistent with oral administration and biliary (fecal) excretion.
smiles,measurement,setting,value
"C[C@H](CCCC(C)(C)O)[C@H]1CC[C@H]2[C@@H]3CC=C4C[C@@H](OS(=O)(=O)O)CC[C@]4(C)[C@H]3CC[C@]12C [25HC3S, 25-hydroxycholesterol-3-sulfate]",binding to pigmented or non-pigmented skin or the uveal tract,[1],no difference
same,plasma or whole blood concentrations versus Sprague Dawley rats,[1]; first 168 hours post-dose,no substantial difference
same,Reduction of methylation (demethylation) at LINE-1 Pos1,Huh-7 cells [2],−5%
same,Reduction of methylation (demethylation) at LINE-1 Pos3,Huh-7 cells [2],−10%
same,Reduction of methylation (demethylation) at LINE-1 Pos 4,Huh-7 cells [2],−5.6%
same,"dose recovered in urine, feces, and cage rinse",[3],approximately 94.5 % of the dose
same,decrease of FAS gene expression,Huh-7 cells [4],~90%
same,decrease of HMGR gene expression,Huh-7 cells [4],~90%
same,increase of CREB5 expression,Huh-7 cells [4],up to 20 fold
same,increase of DUSP8 expression,Huh-7 cells [4],5 fold
same,increase of PGC1A expression,Huh-7 cells [4],12 fold
same,"tissue:plasma ratio, adrenal gland","[5]; male, Sprague Dawley",6.64
same,"tissue:plasma ratio, liver","[5]; male, Sprague Dawley",6.96
same,"tissue:plasma ratio, small intestine (wall)","[5]; male, Sprague Dawley",15.4
same,Cmax in small intestine (wall),[5],"424,000 ng equiv./g"
same,Cmax in stomach (wall),[5],"204,000 ng equiv./g"
same,tissue concentrations by 168 hours post-dose,[5],near or below the quantitation limit in all tissues except adrenal gland and liver
same,tissue distribution of parent and/or metabolites,[5],broadly distributed and detected by quantitative whole body autoradiography in all tissues except the eye (lens)
same,whole blood AUClast,[5],"127,000 h·ng equiv./g"
